Reference: patent US20080183282A1, “Use of lipid conjugates for the coating of stents and catheters” (priority 2006, published 2008)

Test system: Naja Naja Snake Venom PLA2 enzyme
Experiment: In vitro fluorometric PLA2 inhibition assay
Assay type: biochemical
Conditions: 0.1 mg/ml
Procedure: The reaction of the PLA2 enzyme and the PLA2 enzyme substrate 2-(6-(7-nitrobenz-2-oxa-1,3diazol-4-yl)amino) hexanoyl-1-hexadecanoyl-sn-glycero-3-phosphocholine (NHGP) yields a product, which can be detected using a fluorometer. […] indicates inhibition of the PLA2 enzyme.
Compound XXII and Compound XXV were solubilized and diluted in D-PBS, and tested at final concentrations of […], 0.125, 0.25, 0.5 and 1 mg/ml. […] 1 mM NHGP was diluted in D-PBS, for a final concentration of 1 μM. The positive control, Mefenamic Acid (Sigma, M-4267), was tested at a final concentration of 0.1 mg/ml. The PLA2 enzyme is derived from the Naja Naja Snake Venom (Sigma, P6139) and tested at a final concentration of 5 Units/ml. The reaction was carried out in 200 μl solution and initiated by addition of substrate. Fluorescence was read immediately and then every minute for 30 minutes for a total of 30 readings. The fluorometer was set as follows: Excitation 450/50; Emission 530/25; Gain 50.

Cc1cccc(Nc2ccccc2C(=O)O)c1C [mefenamic acid, Mefenamic Acid]
inhibition of the PLA2 enzyme: 41%
